Source: patent US12565467B2, “Compounds, compositions, and methods for the treatment of inflammatory, degenerative, and neurodegenerative diseases” (Board of Supervisors of Louisiana State University and …, priority 2015, dated 2026)

Columns and labels:
SIRT1 = SIRT1 abundance in ARPE-19 cells under oxidative stress; assay type: cell-based; conditions: ARPE-19 / human RPE cells confronted with OS
Text: FIG. 10. (A) Effect of NPD1 and VLC-PUFA C32:6 and C34:6 in mediating upregulation of SIRT1 in ARPE-19 cells. (B) Quantification of SIRT1 upregulation by NPD1, C32:6 and C34:6. SIRT1 (Sirtuin1) belongs to a family of highly conserved proteins linked to caloric restriction beneficial outcomes and aging by regulating energy metabolism, genomic stability and stress resistance. SIRT1 is a potential therapeutic target in several diseases including cancer, diabetes, inflammatory disorders, and neurodegenerative diseases or disorders. Elovanoids induce cell survival involving the upregulation of the Bcl2 class of survival proteins and the downregulation of pro-apoptotic Bad and Bax under oxidative stress (OS) in RPE cells. […] As a consequence, remarkable cell survival takes place. This target of elovanoids might be relevant to counteract consequences of several diseases associated with SIRT1.
FIG. 10—(A) Effect of NPD1 and VLC-PUFA C32:6 and C34:6 in mediating upregulation of SIRT1 in ARPE-19 cells. (B) Quantification of SIRT1 upregulation by NPD1, C32:6 and C34:6. SIRT1 (Sirtuin1) belongs to a family of highly conserved proteins linked to caloric restriction beneficial outcomes and aging by regulating energy metabolism, genomic stability and stress resistance. […]

[1] = tested on: human retinal pigment epithelial (RPE) cells deficient in 15-LOX-D1; assay: Oxidative stress (OS) induced apoptosis / cell death in 15-LOX-1-deficient human RPE cells; assay type: cell-based
Text: (§1) FIG. 4. (A) Cytoprotective effects of NPD1 like compounds on OS induced apoptosis. The results shown in this figure compare the cytoprotective capacities of long chain polyunsaturated fatty acids (VLC-PUFA), elovanoids ELV1 and ELV2, and neuroprotectin D1 (NPD1) in human retinal pigment epithelial (RPE) cells deficient in 15-LOX-D1 by measuring the protection of cell deaths induced by oxidative stress (OS) by these compounds. […] (B) Elovanoid precursors protect human retinal pigment epithelial cells deficient in 15-LOX-1, unlike DHA, from oxidative stress conditions.
(§2) FIG. 5. (A) Effect of PD146176 on VLC-PUFA-inhibited apoptosis induced by OS in ARPE-19 cells. […] It is evident that 32:6 and 34:6 LCAF were able to induce a substantial amount (55 and 48% respectively) of neuroprotection compared to PD 146176 (22%) when the stressed cells were treated with 5 μm of 15-LOX-D1 inhibitor. It can be concluded that since PD146176 is the inhibitor of 15-lipooxygenase enzyme, it might be protecting the stressed RPE cells by accumulating neuroprotective agents inside the cells. (B) Comparison of cytoprotective capacities of NPD1, C32:6 and C34:6 VLC-PUFA on oxidative stress-induced apoptosis in 15-LOX-1 cells. Shown here is the comparison of neuroprotection in a 15-LOX-1-deficient cell line under oxidative stress with 32:6 and 34:6 VLC-PUFA along with NPD1. 32:6 and 34:6 LCAF were able to induce neuroprotection (45% and 40% respectively), as compared to oxidative stress (90%) under this condition. (C) Concentration dependent cytoprotection by C32:6 and C34:6 VLC-PUFA in oxidative-stress induced ARPE-19 cells. A concentration (50-500 nM) kinetic of cytoprotection induced by LCAF 32:6 and 34:6 in RPE cell culture under OS was shown here. […] We decided to use 250 nM concentrations of 32:6 and 34:6 LCAF in subsequent experiments. (D) Selected images of alive and dead cells from this study (control, OS, treatment with C32:6).
as §1, with “Evidence of cytoprotection by 32.6 and 34.6 VLC-PUFA in oxidative-stress induced ARPE-19 cells as detailed in (FIG. 4): (A) Cytoprotective” for “FIG. 4. (A) Cytoprotective”, “capacities of very long chain” for “capacities of long chain”
FIG. 5—(A) Effect of PD146176 on VLC-PUFA inhibited apoptosis induced by OS in ARPE-19 cells. […] It is evident that 32:6 and 34:6 LCAF were able to induce a substantial amount (55 and 48% respectively) of neuroprotection compared to PD 146176 (22%) when the stressed cells were treated with 5 μm of 15-LOX-D1 inhibitor. It can be concluded that since PD146176 is the inhibitor of 15-lipooxygenase enzyme, it might be protecting the stressed RPE cells by accumulating neuroprotective agents inside the cells. (B) Comparison of cytoprotective capacities of NPD1, C32:6 and C34:6 VLC-PUFA on oxidative stress-induced apoptosis in 15-LOX-1 cells. Shown here is the comparison of neuroprotection in a 15-LOX-1-deficient cell line under oxidative stress with 32:6 and 34:6 VLC-PUFA along with NPD1. 32:6 and 34:6 VLC-PUFA were able to induce neuroprotection (45% and 40% respectively), as compared to oxidative stress (90%) under this condition. (C) Concentration dependent cytoprotection by C32:6 and C34:6 VLC-PUFA in oxidative-stress induced ARPE-19 cells. A concentration (50-500 nM) kinetic of cytoprotection induced by VLC-PUFA 32:6 and 34:6 in RPE cell culture under OS was shown here. […] We decided to use 250 nM concentrations of 32:6 and 34:6 VLC-PUFA in subsequent experiments. […]

ARPE-19 cells = assay: Oxidative stress induced apoptosis / cell death in ARPE-19 cells; assay type: cell-based, human; conditions: for concentration dependent cytoprotection (FIG. 5C): ARPE-19 under OS
Experimental: as §2
FIG. 5—(A) Effect of PD146176 on VLC-PUFA inhibited apoptosis induced by OS in ARPE-19 cells. […] It is evident that 32:6 and 34:6 LCAF were able to induce a substantial amount (55 and 48% respectively) of neuroprotection compared to PD 146176 (22%) when the stressed cells were treated with 5 μm of 15-LOX-D1 inhibitor. It can be concluded that since PD146176 is the inhibitor of 15-lipooxygenase enzyme, it might be protecting the stressed RPE cells by accumulating neuroprotective agents inside the cells. (B) Comparison of cytoprotective capacities of NPD1, C32:6 and C34:6 VLC-PUFA on oxidative stress-induced apoptosis in 15-LOX-1 cells. Shown here is the comparison of neuroprotection in a 15-LOX-1-deficient cell line under oxidative stress with 32:6 and 34:6 VLC-PUFA along with NPD1. 32:6 and 34:6 VLC-PUFA were able to induce neuroprotection (45% and 40% respectively), as compared to oxidative stress (90%) under this condition. (C) Concentration dependent cytoprotection by C32:6 and C34:6 VLC-PUFA in oxidative-stress induced ARPE-19 cells. A concentration (50-500 nM) kinetic of cytoprotection induced by VLC-PUFA 32:6 and 34:6 in RPE cell culture under OS was shown here. […] We decided to use 250 nM concentrations of 32:6 and 34:6 VLC-PUFA in subsequent experiments. (D) Selected images of alive and dead cells from this study (control, OS, treatment with C32:6).

Bim = Bim protein in ARPE-19 cells under oxidative stress; assay type: cell-based, human; conditions: ARPE-19 cells under stress
Text: (§3) FIG. 7. (A) VLC-PUFA and ELV1 and ELV2 compounds mediated downregulation of Bim in ARPE-19 cells under stress. Bim, another class of Bcl2 family, has been tested like Bid in this figure to confirm our previous results. VLC-PUFA and elovanoids protected against the upregulation of Bim by OS, similar to Bid, in RPE cells under stress. (B) VLC-PUFA and elovanoids mediated effect on Bim downregulation in ARPE-19 cells under stress.
as §3, with “7—A)” for “7. (A)”, “[…]” for “downregulation”, “protected” for “protected against”

Bid = Bid protein by western blot in ARPE-19 cells under oxidative stress; assay type: cell-based, human
Text: FIG. 6. (A) VLC-PUFA and elovanoids ELV1 and ELV2 mediated effect on Bid upregulation in ARPE-19 cells under stress. […] (B) VLC-PUFA and ELV1 and ELV2 compounds mediated upregulation of Bid in ARPE-19 cells under stress.
FIG. 6—(A) VLC-PUFA and elovanoids ELV1 and ELV2 mediated effect on Bid upregulation in ARPE-19 cells under stress. […] (B) VLC-PUFA and ELV1 and ELV2 compounds mediated upregulation of Bid in ARPE-19 cells under stress.

Bax = Bax expression in LOX-D RPE cells under oxidative stress; assay type: cell-based, human
Experimental: (§4) FIG. 8. (A) Bcl-xL-upregulation by elovanoids ELV1 and ELV2 in ARPE-19 cells under stress. Bcl-xL is the antiapoptotic Bcl2 family protein. Like proapoptotic proteins Bid and Bim, the effect of elovaniod precursors on the antiapoptotic protein Bcl-xL was tested in this figure in RPE cells under OS. […] (B) Effect of NPD1, ELV1 and ELV2 on Bax expression in LOX-D cells under stress. Proapoptotic Bax was tested in this figure. […] C) VLC-PUFA and elovanoids ELV1 and ELV2 mediated effect on Bax upregulation in ARPE-19 cells under stress. In this experiment, elovanoid precursors along with VLC-PUFA were tested on the downregulation of the Bax protein in RPE cells under stress.
as §4, with “8—(A)” for “8. (A)”

Bcl-xL = Bcl-xL protein in ARPE-19 cells under oxidative stress; assay type: cell-based, human; conditions: ARPE-19 cells under OS
Experimental: as §4
as §4, with “8—(A)” for “8. (A)”

Bcl2 = Bcl2 protein in RPE (LOX-D / ARPE-19) cells under oxidative stress; assay type: cell-based, human
Text: FIG. 9. (A) VLC-PUFA and elovanoids ELV1 and ELV2 mediated effect on Bcl2 upregulation in ARPE-19 cells under stress. In this experiment we tested the effect of elovanoid precursors on Bcl2 upregulation along with VLC-PUFA in stressed RPE. (B) Quantification of Bcl2 upregulation by NPD1, ELV1 and ELV2 in LOX-D cells. Bcl2 is an important antiapoptotic protein of the Bcl2 family protein.
FIG. 9—(A) VLC-PUFA and elovanoids ELV1 and ELV2 mediated effect on Bcl2 upregulation in ARPE-19 cells under stress. In this experiment we tested the effect of elovaniod precursors on Blc2 upregulation along with VLC-PUFA in stressed RPE. (B) Quantification of Bcl2 upregulation by NPD1, ELV1 and ELV2 in LOX-D cells. Bcl2 is an important antiapoptotic protein of the Bcl2 family protein.

Structure (SMILES): CC/C=C\C/C=C\C/C=C\C/C=C\C/C=C\C/C=C\CCCCCCCCCCCCC(=O)O [C32:6]
- effect on SIRT1 abundance (FIG. 10) (SIRT1): mediate the upregulation of SIRT1
- neuroprotection (FIG. 5B) ([1]; 15-LOX-1-deficient cell line under oxidative stress, compared to oxidative stress (90%)): 45%
- protection against cell death under oxidative stress conditions (FIG. 4B) ([1]; 15-LOX-D1 cells under oxidative stress): protect against cell death
- concentration dependent cytoprotection (FIG. 5C) (ARPE-19 cells; 250 nM): very good intermediate effect
- concentration dependent cytoprotection (FIG. 5C) (ARPE-19 cells; 500 nM): maximum effect
- protection against OS in RPE cells (summary, FIGS. 4-10) (ARPE-19 cells; RPE cells): protective against OS
- concentration dependent cytoprotection (FIG. 5C) (ARPE-19 cells; starting from 50 nM): gradual decrease of cell deaths
- neuroprotection (FIG. 5A) (ARPE-19 cells; stressed ARPE-19 cells treated with 5 μm of 15-LOX-D1 inhibitor PD146176): 55%

Structure (SMILES): CC/C=C\C[C@H](O)\C=C/C=C/C=C/[C@H](O)C/C=C\C/C=C\CCCCCCCCCCCCC(=O)O [ELV1, (14Z,17Z,20R,21E,23E,25Z,27S,29Z)-20,27-dihydroxydotriaconta-14,17,21,23,25,29-hexaenoic acid]
- effect on Bim upregulation by OS (FIG. 7) (Bim): potent downregulation
- effect on Bid protein upregulated by OS (FIG. 6) (Bid): potent downregulation
- effect on Bax upregulation by OS (FIG. 8B) (Bax): potent downregulation
- activity against OS relative to the related VLC-PUFA (FIG. 4) ([1]; as sodium salts or methyl esters): more potent activity against OS than the related VLC-PUFA
- effect on antiapoptotic Bcl-xL protein (FIG. 8A) (Bcl-xL): potent upregulation
- effect on Bcl2 protein (FIG. 9) (Bcl2): potent upregulation
